Test results from PMC4030036, “Small molecule kinase inhibitor LRRK2-IN-1 demonstrates potent activity against colorectal and pancreatic cancer through inhibition of doublecortin-like kinase 1” (Molecular Cancer, 2014).

Assays:
DLD-1 = test: cells; set-up: MTT proliferation assay, sigmoidal dose-response fit, colon and pancreatic cancer cell lines; details: Homo sapiens, DLD-1; 48 h MTT
MiaPaCa-2 = test: cells; set-up: MTT proliferation assay, sigmoidal dose-response fit, colon and pancreatic cancer cell lines; details: Homo sapiens, MIA PaCa-2; 48 h MTT
HT-29 = test: cells; set-up: MTT proliferation assay, sigmoidal dose-response fit, colon and pancreatic cancer cell lines; details: Homo sapiens, HT-29; 48 h MTT
SW1990 = test: cells; set-up: MTT proliferation assay, sigmoidal dose-response fit, colon and pancreatic cancer cell lines; details: Homo sapiens, SW1990; 48 h MTT
[1] = molecular target: T1, Doublecortin-like kinase 1 (DCLK1) (Homo sapiens, UniProt O15075); test: in vitro kinase assay (Kinase-Glo luminescence) with purified active DCLK1, autocamtide II substrate and […] ATP; format: biochemical
T1 sequence (O15075 1-740): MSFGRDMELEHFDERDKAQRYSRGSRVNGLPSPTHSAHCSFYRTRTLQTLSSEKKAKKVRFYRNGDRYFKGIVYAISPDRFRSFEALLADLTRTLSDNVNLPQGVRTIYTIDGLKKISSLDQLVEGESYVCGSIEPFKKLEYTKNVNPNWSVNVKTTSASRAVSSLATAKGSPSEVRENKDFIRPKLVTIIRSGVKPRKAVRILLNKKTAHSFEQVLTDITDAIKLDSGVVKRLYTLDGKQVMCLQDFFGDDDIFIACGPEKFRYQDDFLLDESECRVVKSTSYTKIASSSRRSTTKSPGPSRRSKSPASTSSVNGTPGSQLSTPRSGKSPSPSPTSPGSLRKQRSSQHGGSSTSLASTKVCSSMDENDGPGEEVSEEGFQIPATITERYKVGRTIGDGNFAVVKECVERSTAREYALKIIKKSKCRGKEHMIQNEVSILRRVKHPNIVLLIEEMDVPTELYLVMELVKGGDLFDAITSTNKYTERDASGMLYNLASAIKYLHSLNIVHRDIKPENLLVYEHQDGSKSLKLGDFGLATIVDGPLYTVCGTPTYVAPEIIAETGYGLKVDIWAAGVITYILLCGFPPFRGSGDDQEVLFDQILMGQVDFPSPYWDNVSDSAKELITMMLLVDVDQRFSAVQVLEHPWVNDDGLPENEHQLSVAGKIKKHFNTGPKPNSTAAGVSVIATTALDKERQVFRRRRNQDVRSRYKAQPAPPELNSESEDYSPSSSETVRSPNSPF

IC50 (DLD-1): 3220 nM
IC50 (MiaPaCa-2): 2010 nM
IC50 (HT-29): 2070 nM
IC50 (SW1990): 5190 nM
IC50 [1]: 2.61 nM
SMILES: COc1cc(C(=O)N2CCC(N3CCN(C)CC3)CC2)ccc1Nc1ncc2c(n1)N(C)c1ccccc1C(=O)N2C [LRRK2-IN-1]
